Source: ChEMBL document CHEMBL1141274, “A Polysaccharide from tomato (Lycopersicon esculentum) peels affects NF-kappaB activation in LPS-stimulated J774 macrophages” (2007)

Key:
Assay type in all cases: functional
J774 [1] = assay: Inhibition of iNOS protein expression in mouse J774 cells by Bio-Rad protein assay
J774 [2] = assay: Inhibition of LPS induced iNOS mRNA level in mouse J774 cells at 10 uM by RT-PCR
J774 [3] = assay: Inhibition of LPS induced nitrite production in mouse J774 cells at 10 uM after 24 hrs relative to control; details: J774, 24 h
J774 [4] = assay: Inhibition of LPS induced ROS production in mouse J774 cells at 10 uM after 24 hrs relative to control; details: J774, 24 h

S=C(S)N1CCCC1 [PYRROLIDINE DITHIOCARBAMATE]
Inhibition (J774 [1]): 60% | inhibition at 10 µM (J774 [2]): 63.9% | inhibition at 10 µM (J774 [3]): 69.3% | inhibition at 10 µM (J774 [4]): 42.2%
